Measured values: US11046699B2, “Pyrazolo-pyrimidin-amino-cycloalkyl compounds and their therapeutic uses” (RAPT THERAPEUTICS, INC., priority 2018, dated 2021)

What follows are compounds tested against GCN2 (Homo sapiens, UniProt Q9P2K8) (assay: GCN2 enzymatic endpoint assay: phosphorylation of GFP-eIF2α measured by TR-FRET (Lanthascreen)). Settings: GCN2 biochemical IC50; 4 nM GCN2, 2 μM ATP, 80 nM GFP-eIF2α, 90 min RT; read-out: GCN2 activity.
Assay type: biochemical
Method in brief: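 Read-out is the TR-FRET ratio of acceptor signal at 520 nm to terbium donor at 495 nm, rising with antibody binding to phosphorylated GFP-eIF2α. Endpoint format: 2 μM ATP, 80 nM substrate, 90 minutes at room temperature, EDTA stop.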

Sequence of GCN2 (Q9P2K8 whole entry): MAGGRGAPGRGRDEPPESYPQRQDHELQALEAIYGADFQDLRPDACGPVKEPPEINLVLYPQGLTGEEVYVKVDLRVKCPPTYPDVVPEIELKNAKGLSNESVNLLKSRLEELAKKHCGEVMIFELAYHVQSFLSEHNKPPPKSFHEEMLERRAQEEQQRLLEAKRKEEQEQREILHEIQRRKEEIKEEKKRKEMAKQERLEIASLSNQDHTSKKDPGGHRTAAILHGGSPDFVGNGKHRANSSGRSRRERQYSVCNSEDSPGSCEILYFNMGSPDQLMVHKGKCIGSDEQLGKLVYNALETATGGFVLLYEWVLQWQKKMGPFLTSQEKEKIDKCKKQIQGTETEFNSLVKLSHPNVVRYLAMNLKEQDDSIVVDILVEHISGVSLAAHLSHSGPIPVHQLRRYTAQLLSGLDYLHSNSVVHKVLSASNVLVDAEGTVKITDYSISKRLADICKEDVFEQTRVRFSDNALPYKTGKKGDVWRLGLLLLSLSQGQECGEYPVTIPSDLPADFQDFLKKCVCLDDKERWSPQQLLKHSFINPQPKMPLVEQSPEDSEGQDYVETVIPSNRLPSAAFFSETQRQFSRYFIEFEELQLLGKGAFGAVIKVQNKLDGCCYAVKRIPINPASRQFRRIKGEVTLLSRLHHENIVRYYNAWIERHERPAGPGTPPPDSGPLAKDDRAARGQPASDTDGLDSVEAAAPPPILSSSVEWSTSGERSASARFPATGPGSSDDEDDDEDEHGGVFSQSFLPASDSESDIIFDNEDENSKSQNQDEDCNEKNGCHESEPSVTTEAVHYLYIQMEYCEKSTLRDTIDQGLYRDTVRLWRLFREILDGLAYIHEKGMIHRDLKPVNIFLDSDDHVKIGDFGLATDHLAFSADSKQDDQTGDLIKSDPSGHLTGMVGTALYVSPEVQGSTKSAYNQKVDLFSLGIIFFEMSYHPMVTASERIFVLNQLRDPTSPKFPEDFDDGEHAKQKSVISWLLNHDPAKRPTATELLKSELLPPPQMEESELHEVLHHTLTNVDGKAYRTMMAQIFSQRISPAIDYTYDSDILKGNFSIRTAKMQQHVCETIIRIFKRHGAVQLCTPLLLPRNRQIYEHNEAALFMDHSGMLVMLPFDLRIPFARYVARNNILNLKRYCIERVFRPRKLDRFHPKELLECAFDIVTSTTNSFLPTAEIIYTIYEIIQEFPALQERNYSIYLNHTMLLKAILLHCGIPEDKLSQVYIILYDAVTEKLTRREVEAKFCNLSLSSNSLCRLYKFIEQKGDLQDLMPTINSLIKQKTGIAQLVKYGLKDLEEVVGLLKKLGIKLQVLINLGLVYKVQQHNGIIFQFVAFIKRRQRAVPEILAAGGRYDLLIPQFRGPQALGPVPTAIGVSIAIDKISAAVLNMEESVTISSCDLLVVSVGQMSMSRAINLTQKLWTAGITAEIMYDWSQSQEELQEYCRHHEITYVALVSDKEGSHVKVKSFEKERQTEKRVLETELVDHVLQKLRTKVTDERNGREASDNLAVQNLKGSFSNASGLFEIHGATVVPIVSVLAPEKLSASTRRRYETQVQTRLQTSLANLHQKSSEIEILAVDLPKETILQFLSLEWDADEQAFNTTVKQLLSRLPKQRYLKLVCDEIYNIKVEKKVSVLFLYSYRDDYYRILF

IC50 | Compound
25 to 200 nM | CNC(=O)[C@]1(C)CC[C@@H](Nc2ncc3c(Br)nn(-c4cc(Cl)cc(CN)c4)c3n2)C1 [Example 52, (1R,3R)-3-((1-(3-(aminomethyl)-5-chlorophenyl)-3-bromo-1H-pyrazolo[3,4-d]pyrimidin-6-yl)amino)-N,1-dimethylcyclopentane-1-carboxamide; 2,2,2-trifluoroacetic acid]
500 to 1000 nM | COCc1noc([C@@H]2CC[C@@H](Nc3ncc4c(Br)nn(-c5ccc6ncccc6c5)c4n3)C2)n1 [Example 5, 3-bromo-N-((1R,3R)-3-(3-(methoxymethyl)-1,2,4-oxadiazol-5-yl)cyclopentyl)-1-(quinolin-6-yl)-1H-pyrazolo[3,4-d]pyrimidin-6-amine]

Same assay, conditions: tested as described in Example 77; compound and/or hydrochloride, dihydrochloride or trifluoroacetic acid salt; read-out: IC 50 Activity

Compound | IC50
CNC(=O)[C@]1(C)CC[C@@H](Nc2ncc3c(Br)nn(-c4ccc(-c5nnc(CCOC)s5)cc4)c3n2)C1 | 25 to 200 nM
CP(C)(=O)[C@@H]1CC[C@@H](Nc2ncc3c(Br)nn(-c4cc(CCN)c5nccnc5c4)c3n2)C1 [1-[8-(2-aminoethyl)quinoxalin-6-yl]-3-bromo-N-[(1R,3R)-3-dimethylphosphorylcyclopentyl] pyrazolo[3,4-d]pyrimidin-6-amine] | 25 to 200 nM
CNC(=O)[C@]1(C)CC[C@@H](Nc2ncc3c(Br)nn(-c4cc(Cl)cc(C(CN)OC)c4)c3n2)C1 (stereo partly drawn) [(1R,3R)-3-[[1-[3-(2-amino-1-methoxy-ethyl)-5-chloro-phenyl]-3-bromo-pyrazolo[3,4-d]pyrimidin-6-yl]amino]-N,1-dimethyl-cyclopentanecarboxamide; 2,2,2-trifluoroacetic acid] | 25 to 200 nM
O=C(NCCOC(F)(F)F)[C@@H]1CC[C@@H](Nc2ncc3c(Br)nn(-c4ccc5ncccc5c4)c3n2)C1 [(1R,3R)-3-((3-bromo-1-(quinolin-6-yl)-1H-pyrazolo[3,4-d]pyrimidin-6-yl)amino)-N-(2-(trifluoromethoxy)ethyl)cyclopentane-1-carboxamide] | 200 to 500 nM
CNC(=O)[C@]1(C)CC[C@@H](Nc2ncc3c(Br)nn(-c4ccc(-c5nnc(C(=O)NCCN(C)C)s5)cc4)c3n2)C1 [5-[4-[3-bromo-6-[[(1R,3R)-3-methyl-3-(methylcarbamoyl)cyclopentyl]amino]pyrazolo[3,4-d]pyrimidin-1-yl]phenyl]-N-[2-(dimethylamino)ethyl]-1,3,4-thiadiazole-2-carboxamide] | 25 to 200 nM
CNC(=O)[C@@H]1CC[C@@H](Nc2ncc3c(Br)nn(-c4ccc(-c5nnc(C)o5)cc4)c3n2)C1 [(1R,3R)-3-[[3-bromo-1-[4-(5-methyl-1,3,4-oxadiazol-2-yl)phenyl]pyrazolo[3,4-d]pyrimidin-6-yl]amino]-N-methyl-cyclopentanecarboxamide] | 25 to 200 nM
CP(C)(=O)[C@@H]1CC[C@@H](Nc2ncc3c(Br)nn(-c4cc(C5CCNC5)c5ncccc5c4)c3n2)C1 (stereo partly drawn) [3-bromo-N-[(1R,3R)-3-dimethylphosphoryl-cyclopentyl]-1-(8-pyrrolidin-3-yl-6-quinolyl) pyrazolo[3,4-d]pyrimidin-6-amine] | 25 to 200 nM
CNC(=O)[C@]1(C)CC[C@@H](Nc2ncc3c(Br)nn(-c4cc(CN)cc(C(F)(F)F)c4)c3n2)C1 [(1R,3R)-3-[[1-[3-(aminomethyl)-5-(trifluoromethyl)phenyl]-3-bromo-pyrazolo[3,4-d]pyrimidin-6-yl]amino]-N,1-dimethyl-cyclopentanecarboxamide; 2,2,2-trifluoroacetic acid] | 25 to 200 nM
CNC(=O)[C@]1(C)CC[C@@H](Nc2ncc3c(Br)nn(-c4cc(CN[S+](C)[O-])c5nccnc5c4)c3n2)C1 (stereo partly drawn) [(1R,3R)-3-[[3-bromo-1-[8-(methane-sulfinamidomethyl)quinoxalin-6-yl]pyrazolo[3,4-d]pyrimidin-6-yl]amino]-N,1-dimethyl-cyclopentane-carboxamide] | 25 to 200 nM
CNC(=O)[C@]1(C)CC[C@@H](Nc2ncc3c(Br)nn(-c4cc(Cl)cc([C@H](C)N(C)C)c4)c3n2)C1 | 25 to 200 nM
CNC(=O)[C@]1(C)CC[C@@H](Nc2ncc3c(Br)nn(-c4ccc5c(c4)C(N)CO5)c3n2)C1 (stereo partly drawn) | 25 to 200 nM
CNC(=O)[C@H]1C[C@H](Nc2ncc3c(Br)nn(-c4cc(Cl)cc(CO)c4)c3n2)CO1 [(2R,4S)-4-[[3-bromo-1-[3-chloro-5-(hydroxymethyl)phenyl]pyrazolo [3,4-d]pyrimidin-6-yl]amino]-N-methyl-tetrahydrofuran-2-carboxamide] | 25 to 200 nM
COCC(C)(C)NC(=O)[C@@H]1CC[C@@H](Nc2ncc3c(Br)nn(-c4ccc5ncccc5c4)c3n2)C1 [(1R,3R)-3-((3-bromo-1-(quinolin-6-yl)-1H-pyrazolo[3,4-d]pyrimidin-6-yl)amino)-N-(1-methoxy-2-methylpropan-2-yl)cyclopentane-1-carboxamide] | 200 to 500 nM

The next lines start with the values.

IC50 | Compound
25 to 200 nM | CNC(=O)N1CC[C@@H](Nc2ncc3c(Br)nn(-c4ccc(-c5nnc(C)s5)cc4)c3n2)C1 [(3R)-3-[[3-bromo-1-[4-(5-methyl-1,3,4-thiadiazol-2-yl)phenyl]pyrazolo [3,4-d]pyrimidin-6-yl]amino]-N-methyl-pyrrolidine-1-carboxamide]
25 to 200 nM | CN1CN(C(=O)[C@@H]2CC[C@@H](Nc3ncc4c(Br)nn(-c5cc(C#N)c6ncccc6c5)c4n3)C2)CC1=O [6-(3-bromo-6-(((1R,3R)-3-(3-methyl-4-oxo-imidazolidine-1-carbonyl)cyclopentyl)amino)-1H-pyrazolo[3,4-d]pyrimidin-1-yl) quinoline-8-carbonitrile]
25 to 200 nM | CNC(=O)C1(C)CC[C@@H](Nc2ncc3c(Br)nn(-c4ccc(-c5noc(C)n5)cc4)c3n2)C1 (stereo partly drawn) [(3R)-3-[[3-bromo-1-[4-(5-methyl-1,2,4-oxadiazol-3-yl)phenyl]pyrazolo[3,4-d]pyrimidin-6-yl]amino]-N,1-dimethyl-cyclopentanecarboxamide]
25 to 200 nM | CNC(=O)[C@]1(C)CC[C@@H](Nc2ncc3c(Br)nn(-c4ccc5c(c4)C(=O)NC5=O)c3n2)C1 [(1R,3R)-3-[[3-bromo-1-(1,3-dioxo-isoindolin-5-yl)pyrazolo[3,4-d]pyrimidin-6-yl]amino]-N,1-dimethyl-cyclopentanecarboxamide]
25 to 200 nM | CC1(C(=O)NC2CCOCC2)CC(Nc2ncc3c(Br)nn(-c4ccc5ncccc5c4)c3n2)C1 (stereo not drawn)
25 to 200 nM | CNC(=O)[C@]1(C)CC[C@@H](Nc2ncc3c(Br)nn(-c4ccc5c(c4)CCN(S(C)(=O)=O)C5)c3n2)C1 [(1R,3R)-3-[[3-bromo-1-(2-methylsulfonyl-3,4-dihydro-1H-isoquinolin-6-yl)pyrazolo [3,4-d]pyrimidin-6-yl]amino]-N,1-dimethyl-cyclopentanecarboxamide]
25 to 200 nM | O=C1CC(CNC(=O)[C@@H]2CC[C@@H](Nc3ncc4c(Br)nn(-c5ccc6ncccc6c5)c4n3)C2)CCN1 (stereo partly drawn) [(1R,3R)-3-((3-bromo-1-(quinolin-6-yl)-1H-pyrazolo[3,4-d]pyrimidin-6-yl)amino)-N-((2-oxopiperidin-4-yl)methyl)cyclopentane-1-carboxamide]
< 25 nM | CNC(=O)[C@]1(C)CC[C@@H](Nc2ncc3c(Br)nn(-c4ccc(-c5nnc(C)o5)cc4)c3n2)C1 [(1R,3R)-3-[[3-bromo-1-[4-(5-methyl-1,3,4-oxadiazol-2-yl)phenyl]pyrazolo[3,4-d]pyrimidin-6-yl]amino]-N,1-dimethyl-cyclo-pentanecarboxamide]
< 25 nM | CNC(=O)[C@]1(COC)CC[C@@H](Nc2ncc3c(I)nn(-c4cc(F)c5ncccc5c4)c3n2)C1 [(1R,3R)-3-[[1-(8-fluoro-6-quinolyl)-3-iodo-pyrazolo[3,4-d]pyrimidin-6-yl]amino]-1-(methoxymethyl)-N-methyl-cyclopentane-carboxamide]
